PubChem BioAssay AID1259407 (Chemical Carcinogenesis Research Information System (CCRIS), 2018)
Activity calls are given as the source filed them. No rule for the calls is given here.

Tested on: CCRIS mutagenicity, Ames/micronucleus/aberration tests
Test: CCRIS mutagenicity studies
[1] = Test System: AMES SALMONELLA TYPHIMURIUM, Strain/Indicator: TA98, Metabolic Activation: NONE, Method: PREINCUBATION
[2] = Test System: AMES SALMONELLA TYPHIMURIUM, Strain/Indicator: TA100, Metabolic Activation: NONE, Method: PREINCUBATION
[3] = Test System: AMES SALMONELLA TYPHIMURIUM, Strain/Indicator: TA104, Metabolic Activation: NONE, Method: PREINCUBATION

Structure (SMILES): COCc1c(O)cc2c(c1O)C(=O)c1ccccc1C2=O
- mutagenic call [1]: active; positive
- mutagenic call (Test System: AMES SALMONELLA TYPHIMURIUM, Strain/Indicator: TA98, Metabolic Activation: RAT, LIVER, S-9, PCB, Method: PREINCUBATION): active; positive
- mutagenic call [2]: active; positive
- mutagenic call (Test System: AMES SALMONELLA TYPHIMURIUM, Strain/Indicator: TA100, Metabolic Activation: RAT, LIVER, S-9, PCB, Method: PREINCUBATION): active; positive

Structure (SMILES): CCn1cc(C(=O)O)c(=O)c2cnc(N3CCNCC3)nc21
- mutagenic call (End Point: In vitro micronucleus, Test System: WTK-1 human lymphoma cells, Metabolic Activation: None): inactive; negative
- mutagenic call [1]: inactive; negative
- mutagenic call (Test System: AMES SALMONELLA TYPHIMURIUM, Strain/Indicator: TA98, Metabolic Activation: RAT LIVER S-9, AROCLOR 1254, Method: PREINCUBATION): inactive; negative
- mutagenic call [2]: inactive; negative
- mutagenic call (Test System: AMES SALMONELLA TYPHIMURIUM, Strain/Indicator: TA100, Metabolic Activation: RAT LIVER S-9, AROCLOR 1254, Method: PREINCUBATION): inactive; negative
- mutagenic call (Test System: AMES SALMONELLA TYPHIMURIUM, Strain/Indicator: TA102, Metabolic Activation: RAT LIVER S-9, AROCLOR 1254, Method: PREINCUBATION): active; positive
- mutagenic call [3]: inactive; negative
- mutagenic call (Test System: AMES SALMONELLA TYPHIMURIUM, Strain/Indicator: TA104, Metabolic Activation: RAT LIVER S-9, AROCLOR 1254, Method: PREINCUBATION): inactive; negative
- mutagenic call (Test System: AMES SALMONELLA TYPHIMURIUM, Strain/Indicator: UHT8414, Metabolic Activation: NONE, Method: PREINCUBATION): inactive; negative
- mutagenic call (Test System: AMES SALMONELLA TYPHIMURIUM, Strain/Indicator: UHT8414, Metabolic Activation: RAT LIVER S-9, AROCLOR 1254, Method: PREINCUBATION): inactive; negative

Structure (SMILES): CCSCCC(N)C(=O)O (centres undefined)
- mutagenic call (Test System: AMES SALMONELLA TYPHIMURIUM, Strain/Indicator: TA97, Metabolic Activation: HAMSTER, LIVER, S-9, AROCLOR 1254 (10%), Method: PREINCUBATION): inactive; negative
- mutagenic call (Test System: AMES SALMONELLA TYPHIMURIUM, Strain/Indicator: TA97, Metabolic Activation: HAMSTER, LIVER, S-9, AROCLOR 1254 (30%), Method: PREINCUBATION): inactive; negative
- mutagenic call (Test System: AMES SALMONELLA TYPHIMURIUM, Strain/Indicator: TA97, Metabolic Activation: NONE, Method: PREINCUBATION): inactive; negative
- mutagenic call (Test System: AMES SALMONELLA TYPHIMURIUM, Strain/Indicator: TA97, Metabolic Activation: RAT, LIVER, S-9, AROCLOR 1254 (10%), Method: PREINCUBATION): inactive; negative
- mutagenic call (Test System: AMES SALMONELLA TYPHIMURIUM, Strain/Indicator: TA97, Metabolic Activation: RAT, LIVER, S-9, AROCLOR 1254 (30%), Method: PREINCUBATION): inactive; negative
- mutagenic call (Test System: AMES SALMONELLA TYPHIMURIUM, Strain/Indicator: TA98, Metabolic Activation: HAMSTER, LIVER, S-9, AROCLOR 1254 (10%), Method: PREINCUBATION): inactive; negative
- mutagenic call (Test System: AMES SALMONELLA TYPHIMURIUM, Strain/Indicator: TA98, Metabolic Activation: HAMSTER, LIVER, S-9, AROCLOR 1254 (30%), Method: PREINCUBATION): inactive; negative
- mutagenic call [1]: inactive; negative
- mutagenic call (Test System: AMES SALMONELLA TYPHIMURIUM, Strain/Indicator: TA98, Metabolic Activation: RAT, LIVER, S-9, AROCLOR 1254 (10%), Method: PREINCUBATION): inactive; negative
- mutagenic call (Test System: AMES SALMONELLA TYPHIMURIUM, Strain/Indicator: TA98, Metabolic Activation: RAT, LIVER, S-9, AROCLOR 1254 (30%), Method: PREINCUBATION): inactive; negative
- mutagenic call (Test System: AMES SALMONELLA TYPHIMURIUM, Strain/Indicator: TA100, Metabolic Activation: HAMSTER, LIVER, S-9, AROCLOR 1254 (10%), Method: PREINCUBATION): inactive; negative
- mutagenic call (Test System: AMES SALMONELLA TYPHIMURIUM, Strain/Indicator: TA100, Metabolic Activation: HAMSTER, LIVER, S-9, AROCLOR 1254 (30%), Method: PREINCUBATION): inactive; negative
- mutagenic call [2]: inactive; negative
- mutagenic call (Test System: AMES SALMONELLA TYPHIMURIUM, Strain/Indicator: TA100, Metabolic Activation: RAT, LIVER, S-9, AROCLOR 1254 (10%), Method: PREINCUBATION): inactive; negative
- mutagenic call (Test System: AMES SALMONELLA TYPHIMURIUM, Strain/Indicator: TA100, Metabolic Activation: RAT, LIVER, S-9, AROCLOR 1254 (30%), Method: PREINCUBATION): inactive; negative
- mutagenic call (Test System: AMES SALMONELLA TYPHIMURIUM, Strain/Indicator: TA104, Metabolic Activation: HAMSTER, LIVER, S-9, AROCLOR 1254 (10%), Method: PREINCUBATION): inactive; negative
- mutagenic call (Test System: AMES SALMONELLA TYPHIMURIUM, Strain/Indicator: TA104, Metabolic Activation: HAMSTER, LIVER, S-9, AROCLOR 1254 (30%), Method: PREINCUBATION): inactive; negative
- mutagenic call [3]: inactive; negative
- mutagenic call (Test System: AMES SALMONELLA TYPHIMURIUM, Strain/Indicator: TA104, Metabolic Activation: RAT, LIVER, S-9, AROCLOR 1254 (10%), Method: PREINCUBATION): inactive; negative
- mutagenic call (Test System: AMES SALMONELLA TYPHIMURIUM, Strain/Indicator: TA104, Metabolic Activation: RAT, LIVER, S-9, AROCLOR 1254 (30%), Method: PREINCUBATION): inactive; negative
- mutagenic call (Test System: AMES SALMONELLA TYPHIMURIUM, Strain/Indicator: TA1535, Metabolic Activation: HAMSTER, LIVER, S-9, AROCLOR 1254 (10%), Method: PREINCUBATION): inactive; negative
- mutagenic call (Test System: AMES SALMONELLA TYPHIMURIUM, Strain/Indicator: TA1535, Metabolic Activation: HAMSTER, LIVER, S-9, AROCLOR 1254 (30%), Method: PREINCUBATION): inactive; negative
- mutagenic call (Test System: AMES SALMONELLA TYPHIMURIUM, Strain/Indicator: TA1535, Metabolic Activation: NONE, Method: PREINCUBATION): inactive; negative
- mutagenic call (Test System: AMES SALMONELLA TYPHIMURIUM, Strain/Indicator: TA1535, Metabolic Activation: RAT, LIVER, S-9, AROCLOR 1254 (10%), Method: PREINCUBATION): inactive; negative
- mutagenic call (Test System: AMES SALMONELLA TYPHIMURIUM, Strain/Indicator: TA1535, Metabolic Activation: RAT, LIVER, S-9, AROCLOR 1254 (30%), Method: PREINCUBATION): inactive; negative

Structure (SMILES): ClCc1ccc(Br)cc1
- mutagenic call (Test System: AMES SALMONELLA TYPHIMURIUM, Strain/Indicator: TA100, Metabolic Activation: NONE, Method: STANDARD PLATE): inactive; negative

Structure (SMILES): CCCCCNC(=O)/C=C/c1ccc([N+](=O)[O-])o1
- mutagenic call [1]: active; positive

Structure (SMILES): CC(C)CN(N=O)/C(N)=N/[N+](=O)[O-]
- mutagenic call (Test System: AMES SALMONELLA TYPHIMURIUM, Strain/Indicator: TA100, Metabolic Activation: RAT, LIVER, S-9, KC500 OR PHENOBARBITAL, Method: LIQUID SUSPENSION): active; positive
- mutagenic call (Test System: AMES SALMONELLA TYPHIMURIUM, Strain/Indicator: TA1535, Metabolic Activation: NONE, Method: STANDARD PLATE): active; positive
- mutagenic call (Test System: AMES SALMONELLA TYPHIMURIUM, Strain/Indicator: TA1535, Metabolic Activation: RAT, LIVER, S-9, KC500 OR PHENOBARBITAL, Method: LIQUID SUSPENSION): active; positive
